Measured values from PubChem BioAssay AID1918937 (Molecular Pharmacology Branch, DTP, NCI, 2023).
pIC50: −log10 of the molar value. Several values for one entry are separate records, joined by “and”; a condition that tells them apart may be missing. Equal values may be shown once.

System: 521955-158-R2-J5-PDC complex spheroid viability
Test: Anticancer human tumor 521955-158-R2-J5-PDC patient-derived pancreatic carcinoma cell line growth inhibition
Details: for viability, T/C: stronger effect = lower value
Procedure, shortened: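 Multicellular complex spheroids of tumor cells with human endothelial cells (HUVEC) and mesenchymal stem cells; the LSD1 inhibitor iadademstat was combined with standard-of-care or investigational agents. Top concentration at or near clinical Cmax, half-log dilutions; final DMSO ≤0.25%.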

[1] = curve of first compound, second compound 0.1 µM
[2] = curve of first compound, second compound 0.316 µM
[3] = curve of first compound, second compound 1 µM
[4] = curve of first compound, second compound 3.16 µM
[5] = curve of first compound, second compound 10 µM
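Also: spheroids exposed to agents for seven days.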
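For viability, T/C in this document: percent of DMSO vehicle control luminescence viability.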

**Q.** How did the pIC50 [1] turn out when `COc1cc(Nc2ncc3c(n2)-c2ccc(Cl)cc2C(c2c(F)cccc2OC)=NC3)ccc1C(=O)O` + NC1CCC(NC2CC2c2ccccc2)CC1 was run?
**A.** 8.23

**Q.** What about the pIC50 [2] of the same compound?
**A.** 7.47

**Q.** And the pIC50 [3]?
**A.** 7.13

**Q.** What about the pIC50 [4] of the same compound?
**A.** 7.82

**Q.** And the pIC50 [5]?
**A.** 7.38

**Q.** And the viability, T/C (second compound 0.1 µM, first compound 0.00316 µM)?
**A.** 49.1%

**Q.** And the viability, T/C (second compound 0.1 µM, first compound 0.01 µM)?
**A.** 54.5%

**Q.** What about the viability, T/C (second compound 0.1 µM, first compound 0.0316 µM) of the same compound?
**A.** 45.8%

**Q.** And the viability, T/C (second compound 0.1 µM, first compound 0.1 µM)?
**A.** 41.7%

**Q.** And the viability, T/C (second compound 0.1 µM, first compound 0.316 µM)?
**A.** 44.8%

**Q.** What about the viability, T/C (second compound 0.1 µM, first compound 1 µM) of the same compound?
**A.** 46.7%

**Q.** And the viability, T/C (second compound 0.316 µM, first compound 0.00316 µM)?
**A.** 54.4%

**Q.** And the viability, T/C (second compound 0.316 µM, first compound 0.01 µM)?
**A.** 56.7%

**Q.** What about the viability, T/C (second compound 0.316 µM, first compound 0.0316 µM) of the same compound?
**A.** 50.3%

**Q.** And the viability, T/C (second compound 0.316 µM, first compound 0.1 µM)?
**A.** 45%

**Q.** And the viability, T/C (second compound 0.316 µM, first compound 0.316 µM)?
**A.** 45.2%

**Q.** And the viability, T/C (second compound 0.316 µM, first compound 1 µM)?
**A.** 46.2%

**Q.** And the viability, T/C (second compound 1 µM, first compound 0.00316 µM)?
**A.** 45.7%

**Q.** And the viability, T/C (second compound 1 µM, first compound 0.01 µM)?
**A.** 54.1%

**Q.** And the viability, T/C (second compound 1 µM, first compound 0.0316 µM)?
**A.** 51.5%

**Q.** And the viability, T/C (second compound 1 µM, first compound 0.1 µM)?
**A.** 49.8%

**Q.** What about the viability, T/C (second compound 1 µM, first compound 0.316 µM) of the same compound?
**A.** 41.8%

**Q.** And the viability, T/C (second compound 1 µM, first compound 1 µM)?
**A.** 38%

**Q.** And the viability, T/C (second compound 3.16 µM, first compound 0.00316 µM)?
**A.** 55.2%

**Q.** And the viability, T/C (second compound 3.16 µM, first compound 0.01 µM)?
**A.** 50.2%

**Q.** What about the viability, T/C (second compound 3.16 µM, first compound 0.0316 µM) of the same compound?
**A.** 50.1%

**Q.** And the viability, T/C (second compound 3.16 µM, first compound 0.1 µM)?
**A.** 44.9%

**Q.** And the viability, T/C (second compound 3.16 µM, first compound 0.316 µM)?
**A.** 39.1%

**Q.** What about the viability, T/C (second compound 3.16 µM, first compound 1 µM) of the same compound?
**A.** 41.8%

**Q.** What about the viability, T/C (second compound 10 µM, first compound 0.00316 µM) of the same compound?
**A.** 48.8%

**Q.** What about the viability, T/C (second compound 10 µM, first compound 0.01 µM) of the same compound?
**A.** 53.9%

**Q.** What about the viability, T/C (second compound 10 µM, first compound 0.0316 µM) of the same compound?
**A.** 50.5%

**Q.** And the viability, T/C (second compound 10 µM, first compound 0.1 µM)?
**A.** 46.9%

**Q.** What about the viability, T/C (second compound 10 µM, first compound 0.316 µM) of the same compound?
**A.** 36.2%

**Q.** What about the viability, T/C (second compound 10 µM, first compound 1 µM) of the same compound?
**A.** 36.7%

**Q.** `O=C(C=Cc1cccc(S(=O)(=O)Nc2ccccc2)c1)NO` + NC1CCC(NC2CC2c2ccccc2)CC1 was tested. Which pIC50 [1] did it give?
**A.** < 5.52

**Q.** And the pIC50 [2]?
**A.** < 5.52

**Q.** And the pIC50 [3]?
**A.** < 5.52

**Q.** What about the pIC50 [4] of the same compound?
**A.** 6.53

**Q.** And the pIC50 [5]?
**A.** 6.05

**Q.** And the viability, T/C (second compound 0.1 µM, first compound 0.00949 µM)?
**A.** 106%

**Q.** And the viability, T/C (second compound 0.1 µM, first compound 0.03 µM)?
**A.** 112%

**Q.** And the viability, T/C (second compound 0.1 µM, first compound 0.0949 µM)?
**A.** 88.3%

**Q.** What about the viability, T/C (second compound 0.1 µM, first compound 0.3 µM) of the same compound?
**A.** 43.7%

**Q.** And the viability, T/C (second compound 0.1 µM, first compound 0.949 µM)?
**A.** 16.5%

**Q.** What about the viability, T/C (second compound 0.1 µM, first compound 3 µM) of the same compound?
**A.** 104%

**Q.** And the viability, T/C (second compound 0.316 µM, first compound 0.00949 µM)?
**A.** 112%

**Q.** And the viability, T/C (second compound 0.316 µM, first compound 0.03 µM)?
**A.** 104%

**Q.** And the viability, T/C (second compound 0.316 µM, first compound 0.0949 µM)?
**A.** 90.1%

**Q.** And the viability, T/C (second compound 0.316 µM, first compound 0.3 µM)?
**A.** 46.7%

**Q.** What about the viability, T/C (second compound 0.316 µM, first compound 0.949 µM) of the same compound?
**A.** 11.5%

**Q.** And the viability, T/C (second compound 0.316 µM, first compound 3 µM)?
**A.** 98.8%

**Q.** And the viability, T/C (second compound 1 µM, first compound 0.00949 µM)?
**A.** 96.9%

**Q.** What about the viability, T/C (second compound 1 µM, first compound 0.03 µM) of the same compound?
**A.** 97.3%

**Q.** What about the viability, T/C (second compound 1 µM, first compound 0.0949 µM) of the same compound?
**A.** 81.4%

**Q.** And the viability, T/C (second compound 1 µM, first compound 0.3 µM)?
**A.** 53%

**Q.** And the viability, T/C (second compound 1 µM, first compound 0.949 µM)?
**A.** 13%

**Q.** What about the viability, T/C (second compound 1 µM, first compound 3 µM) of the same compound?
**A.** 88%

**Q.** What about the viability, T/C (second compound 3.16 µM, first compound 0.00949 µM) of the same compound?
**A.** 99.4%

**Q.** And the viability, T/C (second compound 3.16 µM, first compound 0.03 µM)?
**A.** 102%

**Q.** What about the viability, T/C (second compound 3.16 µM, first compound 0.0949 µM) of the same compound?
**A.** 84.6%

**Q.** And the viability, T/C (second compound 3.16 µM, first compound 0.3 µM)?
**A.** 50.1%

**Q.** And the viability, T/C (second compound 3.16 µM, first compound 0.949 µM)?
**A.** 6.88%

**Q.** And the viability, T/C (second compound 3.16 µM, first compound 3 µM)?
**A.** 89.7%

**Q.** And the viability, T/C (second compound 10 µM, first compound 0.00949 µM)?
**A.** 99.9%

**Q.** And the viability, T/C (second compound 10 µM, first compound 0.03 µM)?
**A.** 97.2%

**Q.** What about the viability, T/C (second compound 10 µM, first compound 0.0949 µM) of the same compound?
**A.** 79.5%

**Q.** What about the viability, T/C (second compound 10 µM, first compound 0.3 µM) of the same compound?
**A.** 51.5%

**Q.** And the viability, T/C (second compound 10 µM, first compound 0.949 µM)?
**A.** 11.2%

**Q.** And the viability, T/C (second compound 10 µM, first compound 3 µM)?
**A.** 88%

**Q.** What does the source list for `CC(C)CC(NC(=O)C(Cc1ccccc1)NC(=O)c1cnccn1)B(O)O` (configuration not stated)?
**A.** viability, T/C (compound 0.000316 µM): 79.9% and 91.8%; viability, T/C (compound 0.001 µM): 0.42% and 0.86%; viability, T/C (compound 0.00316 µM): 0.29% and 0.43%; viability, T/C (compound 0.01 µM): 0.18% and 0.38%; viability, T/C (compound 0.0316 µM): 0.31% and 0.4%; viability, T/C (compound 0.1 µM): 0.21% and 0.45%; pIC50 (curve of compound): 9.31 and 9.27
